Source: the supplement of paper PMC13380429

Experiments:
[1] = test system: A549-ACE2 infected with SARS-CoV-2; test: cell count relative to DMSO; higher = less toxic; conditions: 24 h
[2] = test system: Caco-2; test: cell viability relative to DMSO; higher = less toxic; conditions: 72 h
[3] = test system: Calu-3; test: as above; conditions: 72 h
[4] = test system: HepG2; test: as above; conditions: 72 h
[5] = test system: U2OS; test: as above; conditions: 72 h
[6] = test system: Vero E6; test: as above; conditions: 72 h
[7] = test system: A549-ACE2 infected with SARS-CoV-2; test: SARS-CoV-2 infection rate relative to DMSO; higher = more infection; conditions: 24 h
[8] = test system: A549-ACE2; test: phospholipidosis EC50; higher = less potent phospholipidosis inducer
[9] = test system: A549-ACE2; test: drug-induced phospholipidosis relative to tamoxifen; higher = more phospholipidosis
[10] = test system: A549-ACE2 infected with SARS-CoV-2; test: morphology score (similarity to uninfected cells); higher = more like uninfected cells; conditions: 24 h
[11] = test system: HepG2; test: relative viability EC50 (midpoint between 100% and the lowest measured viability); higher = less toxic; conditions: 72 h
[12] = test system: U2OS; test: as above; conditions: 72 h
[13] = test system: Caco-2; test: drug sensitivity score (DSS) for viability; higher = more toxic; extreme values may be limits of the assay; conditions: 72 h
[14] = test system: Calu-3; test: as above; conditions: 72 h
[15] = test system: HepG2; test: as above; conditions: 72 h
[16] = test system: U2OS; test: as above; conditions: 72 h
[17] = test system: Vero E6; test: as above; conditions: 72 h
[18] = test system: Calu-3; test: relative viability EC50 (midpoint between 100% and the lowest measured viability); higher = less toxic; conditions: 72 h
[19] = test system: Vero E6; test: as above; conditions: 72 h

CCN1CCN(Cc2ccc(C(=O)Nc3ccc(C)c(Oc4ccc5c(c4)CC(=O)N5)c3)cc2C(F)(F)F)CC1 [DDR1-IN-1]
Conditions	SARS-CoV-2 infection rate [%]	cell count [%]	cell viability [%]	morphology score	phospholipidosis EC50 [µM]
[1], 0.1 µM	–	102	–	–	–
[1], 0.3 µM	–	104	–	–	–
[1], 1 µM	–	114	–	–	–
[1], 3 µM	–	121	–	–	–
[2], 1 nM	–	–	102	–	–
[2], 10 nM	–	–	94.8	–	–
[2], 100 nM	–	–	101	–	–
[2], 1000 nM	–	–	88.1	–	–
[2], 10000 nM	–	–	58	–	–
[3], 1 nM	–	–	97.2	–	–
[3], 10 nM	–	–	101	–	–
[3], 100 nM	–	–	99.2	–	–
[3], 1000 nM	–	–	104	–	–
[3], 10000 nM	–	–	50.3	–	–
[4], 1 nM	–	–	96.5	–	–
[4], 10 nM	–	–	91.4	–	–
[4], 100 nM	–	–	90.3	–	–
[4], 1000 nM	–	–	104	–	–
[4], 10000 nM	–	–	42.5	–	–
[5], 1 nM	–	–	100	–	–
[5], 10 nM	–	–	98.2	–	–
[5], 100 nM	–	–	99.6	–	–
[5], 1000 nM	–	–	94.5	–	–
[5], 10000 nM	–	–	79.8	–	–
[6], 1 nM	–	–	97.4	–	–
[6], 10 nM	–	–	99.5	–	–
[6], 100 nM	–	–	100	–	–
[6], 1000 nM	–	–	100	–	–
[6], 10000 nM	–	–	72.9	–	–
[7], 0.1 µM	98	–	–	–	–
[7], 0.3 µM	96	–	–	–	–
[7], 1 µM	61	–	–	–	–
[7], 3 µM	26	–	–	–	–
[8], 24 h	–	–	–	–	1.39
[8], 48 h	–	–	–	–	3.2
[8], 72 h	–	–	–	–	4.19
[10], 0.1 µM	–	–	–	-0.13	–
[10], 0.3 µM	–	–	–	-0.1	–
[10], 1 µM	–	–	–	0.26	–
[10], 3 µM	–	–	–	0.78	–

drug-induced phospholipidosis [%], [9]
Conditions	0.3 µM	0.833333 µM	3.33333 µM	6.66667 µM	10 µM	30 µM
24 h	10.6	33.4	86.8	106	121	89.6
48 h	6.52	20.9	67.3	89.5	109	118
72 h	6.39	17.7	60.8	89.3	107	126

Conditions	drug sensitivity score	relative viability EC50 [µM]
[11]	–	3.52
[12]	–	> 10
[13]	3.9	–
[14]	2.3	–
[15]	2.8	–
[16]	1.3	–
[17]	1.1	–

COc1cc2ncnc(Sc3nnc(C)s3)c2cc1OC [SKLB1002]
Conditions	SARS-CoV-2 infection rate, [7] [%]	cell count, [1] [%]	cell viability, [2] [%]	cell viability, [3] [%]	cell viability, [4] [%]	cell viability, [5] [%]	cell viability, [6] [%]	morphology score, [10]
1 nM	–	–	101	103	104	99.1	96.2	–
10 nM	–	–	92	99.2	99.6	99.4	94.8	–
100 nM	–	–	97.7	96.3	105	102	92.7	–
0.3 µM	105	102	–	–	–	–	–	-0.11
1000 nM	–	–	94.4	92.1	105	102	98.4	–
3 µM	105	102	–	–	–	–	–	-0.15
10 µM	106	97	–	–	–	–	–	0.01
10000 nM	–	–	73.7	107	59.1	88.3	87.8	–
30 µM	79	85	–	–	–	–	–	0.25

drug-induced phospholipidosis [%], [9]
Conditions	0.3 µM	0.833333 µM	3.33333 µM	6.66667 µM	10 µM	30 µM
24 h	7.29	1.02	4.5	10.7	22.8	44.1
48 h	7.01	-1.13	-0.08	3.84	12.5	–
72 h	8.05	-2.71	-0.571	-0.945	0.143	–

Conditions	drug sensitivity score	relative viability EC50 [µM]
[12]	–	> 10
[13]	1.9	–
[14]	0	–
[15]	1.7	–
[16]	0	–
[17]	0	–
[18]	–	> 10
[19]	–	> 10

O=C(c1ccc(-c2ccc(Cl)cc2)o1)N(Cc1ccccn1)c1ccc(N2CCNCC2)cc1 [MK2-IN-1]
Conditions	SARS-CoV-2 infection rate [%]	cell count [%]	cell viability [%]	morphology score	phospholipidosis EC50 [µM]
[1], 0.1 µM	–	100	–	–	–
[1], 0.3 µM	–	102	–	–	–
[1], 1 µM	–	107	–	–	–
[1], 3 µM	–	117	–	–	–
[2], 1 nM	–	–	104	–	–
[2], 10 nM	–	–	111	–	–
[2], 100 nM	–	–	100	–	–
[2], 1000 nM	–	–	131	–	–
[2], 10000 nM	–	–	52.9	–	–
[3], 1 nM	–	–	92.2	–	–
[3], 10 nM	–	–	112	–	–
[3], 100 nM	–	–	93.9	–	–
[3], 1000 nM	–	–	116	–	–
[3], 10000 nM	–	–	54.9	–	–
[4], 1 nM	–	–	102	–	–
[4], 10 nM	–	–	109	–	–
[4], 100 nM	–	–	115	–	–
[4], 1000 nM	–	–	97.9	–	–
[4], 10000 nM	–	–	68.2	–	–
[5], 1 nM	–	–	97.9	–	–
[5], 10 nM	–	–	103	–	–
[5], 100 nM	–	–	95.9	–	–
[5], 1000 nM	–	–	104	–	–
[5], 10000 nM	–	–	83.2	–	–
[6], 1 nM	–	–	96.5	–	–
[6], 10 nM	–	–	94	–	–
[6], 100 nM	–	–	98.1	–	–
[6], 1000 nM	–	–	95.7	–	–
[6], 10000 nM	–	–	67.6	–	–
[7], 0.1 µM	97	–	–	–	–
[7], 0.3 µM	88	–	–	–	–
[7], 1 µM	77	–	–	–	–
[7], 3 µM	29	–	–	–	–
[8], 24 h	–	–	–	–	3.59
[8], 48 h	–	–	–	–	4.69
[8], 72 h	–	–	–	–	4.85
[10], 0.1 µM	–	–	–	0.14	–
[10], 0.3 µM	–	–	–	0.26	–
[10], 1 µM	–	–	–	0.34	–
[10], 3 µM	–	–	–	0.75	–

drug-induced phospholipidosis [%], [9]
Conditions	0.3 µM	0.833333 µM	3.33333 µM	6.66667 µM	10 µM	30 µM
24 h	3.45	9.1	31.8	109	102	96.8
48 h	6.99	4.08	23	127	127	153
72 h	5.37	-1.19	20.6	118	139	–

Conditions	drug sensitivity score	relative viability EC50 [µM]
[12]	–	> 10
[13]	1.5	–
[14]	1.7	–
[15]	1.7	–
[16]	0.2	–
[17]	2.2	–
